Measured values taken from patent publication US11440932B2, “Surfactant compounds-clips for extraction and stabilization in solution of membrane proteins” (CENTRE NATIONAL DE LA RECHERCHE SCIENTIFIQUE, priority 2017, dated 2022).

Molecular target: T1, BmrA (Bacillus subtilis, UniProt O06967)
T1 construct: His tag; made in house; host or cells: E. coli C41(DE3)
Experiment: ATPase activity of BmrA after addition of detergents
Type: biochemical, bacterial; produced in E. coli C41 DE3
Conditions: at extracting concentrations; relative to protein without compound
Procedure: FIG. 7 depicts the effect of the detergents of the invention on the functionality of BmrA (ATPase activity, %). The membrane fraction enriched in BmrA (˜25%) diluted to 2 g/l has the compounds added to it at the concentrations (mM) indicated (panel A, from top to bottom: 3.7e 10.7 mM, 3.7e 8.6 mM, 3.7e 6.4 mM, 3.7e 4.3 mM, 3.7e 2.2 mM, 3.7e 1.1 mM, 3.7d 4 mM, 3.7d 3 mM, 3.7d 2 mM, 3.7d 1 mM, 3.7d 0.8 mM, 3.7d 0.6 mM, 3.7d 0.05 mM, 3.7d 0.03 mM, 3.7d 0.02 mM, 3.7c 13 mM, 3.7c 10.4 mM, 3.7c 10 mM, 3.7b 1.5 mM, 3.7b 0.7 mM, 3.7b 0.5 mM, 2.3gNa2 20.5 mM, 2.3gK2 19.3 mM, 2.3f 21.1 mM, 2.3e 22 mM, 2.3d 23.2 mM, 2.3a 3.2 mM, 1.5a 22 mM, DDM 20 mM, DDM 2 mM, DDM 10 mM, DOM 2 mM, DDM 1 mM, LMNG 10 mM, LMNG 1 mM, LMNG 0.1 mM, LMNG 0.01 mM, FA3 27 mM, FA3 9 mM, FA3 2 mM, FA3 1 mM, TX100 16 mM; panel B from top to bottom: compounds of the invention 5.3d 3.2 mM, 5.3c 3.3 mM, 5.3b 11.7 mM, 5.3b 2.9 mM, 5.3a 3 mM, 4.6c 14.6 mM, 4.6b 15.2 mM, 4.5c 18.6 mM, 4.5b 19.6 mM, 3.9a 8 mM, 3.9a 0.51 mM, 3.9a 0.31 mM, 3.9a 0.11 mM, 3.7l 12.01 mM, 3.7l 6.01 mM, 3.7l 3 mM, 3.7l 1 mM, 3.7k 10 mM, 3.7k 3 mM, 3.7j 3 mM, 3.7j 2 mM, 3.7j 1 mM, 3.7j 0.6 mM, 3.7j 0.03 mM, 3.7j 0.02 mM, 3.7j 1 mM, 3.7i 0.3 mM, 3.7h 3 mM, 3.7h 2 mM, 3.7h 1 mM, 3.7h 0.6 mM, 3.7h 0.58 mM, 3.7h 0.5 mM, 3.7h 0.35 mM, 3.7h 0.1 mM, 3.7h 0.5 mM, 3.7h 0.35 mM, 3.7h 0.1 mM, 3.7h 0.05 mM, 3.7h 0.03 mM, 3.7h 0.02 mM, 3.7g 12.5 mM, 3.7g 9 mM, 3.7g 7.5 mM, 3.7g 5 mM, 3.7g 3 mM, 3.7g 1 mM, 3.7f 3.2 mM, 3.7f 2 mM, 3.7f 1 mM, 3.7f 0.061 mM, 3.7f 0.031 mM, 3.7f 0.015 mM). After incubation for 2 h at 4° C., the ATPase activity is measured. The solutions are subsequently centrifuged for 1 h at 4° C., 100 000×g, and the supernatants deposited on 10% SDS-PAGE (cf. FIG. 8). The gray and black histograms correspond to the concentrations at which BmrA is partially (gray) or entirely (black) extracted, according to these SDS-PAGE. The ATPase activity is in % relative to that of the protein without compound, 0.7 μmol ATP hydrolyzed/min/mg of proteins.
The molecules of the invention which extract BmrA in the previous example were tested at different sub-solubilizing and solubilizing concentrations, to evaluate their impact on the native and functional state of the protein. The latter is monitored by the hydrolysis of ATP which is carried out by the protein during the transport cycle, coupled with translocation of the solute. As reported previously (Matar-Merheb, R. et al. ([11])), the ATPase activity of BmrA is a highly sensitive marker of the state of the protein, the latter being particularly sensitive to the detergents used during the extraction step, where said detergents replace the lipids on contact with the membrane protein.
Procedure. BmrA produced and enriched in the plasma membrane of E. coli C41 DE3 is prepared as described previously (Matar-Merheb, R. et al. ([11])). The membranes are diluted at 2 g/l in a 20 mM Tris-HCl buffer, pH 8.0, 100 mM NaCl, 15% glycerol, with protease inhibitors (Roche) added thereto at an amount of one tablet/100 ml. The mixture (T) is incubated for 2 h at 4° C. and the ATPase activity is measured using the coupled-enzyme system, separating off the vanadate-insensitive activity from the total activity, Centeno, F. et al. Expression of the sarcoplasmic reticulum Ca^2+-ATPase in yeast. FEBS Lett 354, 117-122 (1994) ([25])). The solutions are subsequently centrifuged for 1 h at 4° C. at 100 000×g in order to separate the extracted fraction (supernatant, S) from that which is not extracted (pellet). The supernatants are deposited on 10% SDS-PAGE and stained with Coomassie blue after migration (FIG. 8). DDM, LMNG (Chae, P. S. et al. ([6])), TritonX100 and FA3 (Lee, S. C. et al. (2013) ([9])) are tested as reference detergents. The DDM and LMNG originate from Anatrace, the Triton X100 originates from Sigma-Aldrich and the FA3 from Avanti-Polars.

T1 sequence (O06967 whole entry): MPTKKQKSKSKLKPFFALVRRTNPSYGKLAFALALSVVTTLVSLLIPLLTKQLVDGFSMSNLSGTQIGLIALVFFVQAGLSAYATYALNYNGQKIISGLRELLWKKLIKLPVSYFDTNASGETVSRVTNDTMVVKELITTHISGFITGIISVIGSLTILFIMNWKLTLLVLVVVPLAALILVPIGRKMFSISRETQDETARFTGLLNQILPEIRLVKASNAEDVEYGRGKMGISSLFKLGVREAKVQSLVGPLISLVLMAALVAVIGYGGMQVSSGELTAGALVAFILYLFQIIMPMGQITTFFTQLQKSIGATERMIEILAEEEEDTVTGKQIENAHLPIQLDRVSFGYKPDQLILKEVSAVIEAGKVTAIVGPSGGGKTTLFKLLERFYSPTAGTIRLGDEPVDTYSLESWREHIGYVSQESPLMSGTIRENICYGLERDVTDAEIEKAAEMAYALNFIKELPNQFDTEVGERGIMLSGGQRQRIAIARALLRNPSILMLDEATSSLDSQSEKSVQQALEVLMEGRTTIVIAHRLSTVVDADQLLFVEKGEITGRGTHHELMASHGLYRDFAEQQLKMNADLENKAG

## CCCCCCCCCCCC(=O)N[C@@H](COCc1cn(CCO[C@@H]2OC(CO)[C@@H](O)C(O)C2O)nn1)C(=O)N[C@H](CCC(=O)O)C(=O)O (stereo partly drawn) [Compound 3.7b]
  change of the ATPase activity of BmrA on extraction: 1.5 ×

## CCCCCCCCCCCCCC(=O)N[C@@H](COCc1cn(CCO[C@@H]2OC(CO)[C@@H](O[C@H]3OC(CO)[C@@H](O)C(O)C3O)C(O)C2O)nn1)C(=O)N[C@H](CCC(=O)O)C(=O)O (stereo partly drawn) [Compound 3.7e]
  change of the ATPase activity of BmrA on extraction: 2 ×

## CCCCCCCCCCCCCC(=O)N[C@@H](COCc1cn(CCO[C@@H]2OC(CO)[C@@H](O)C(O)C2O)nn1)C(=O)N[C@@H](CCC(=O)O)C(=O)NCC(=O)O (stereo partly drawn) [Compound 3.7l]
  change of the ATPase activity of BmrA on extraction: maintaining

## CCCCCCCCCCCCC(CCCCCCCCCCCC)C(=O)N[C@@H](COCc1cn(CCO[C@@H]2OC(CO)[C@@H](O)C(O)C2O)nn1)C(=O)N[C@H](CCC(=O)O)C(=O)O (stereo partly drawn) [Compound 3.7j]
  change of the ATPase activity of BmrA on extraction: maintaining

## CCCCCCCCCCCCCC(=O)N[C@@H](COCc1cn(CCOCCOCCOCCOCCOCCOC)nn1)C(=O)N[C@H](CCC(=O)O)C(=O)O [Compound 3.7g]
  change of the ATPase activity of BmrA on extraction: 1.5 ×

## CCCCCCCCCCCCCC(=O)N[C@@H](COCc1cn(CCO[C@@H]2OC(CO)[C@@H](O)C(O)C2O)nn1)C(=O)N[C@H](CCC(=O)O)C(=O)O (stereo partly drawn) [Compound 3.7c]
  change of the ATPase activity of BmrA on extraction: 1.5 ×
